Laboratory results as given in publication PMC9841525, “Chemical Blockage of the Mitochondrial Rhomboid Protease PARL by Novel Ketoamide Inhibitors Reveals Its Role in PINK1/Parkin-Dependent Mitophagy” (Journal of Medicinal Chemistry, 2022).
*1 amine or outer side, *2 acyl side, *3 side chain or, on linkers, in order; H or OH if unused. Where a SMILES comes first, the peptide text is derived from it. [ ]: non-standard residue; d: D form. The star is where a group is joined. NH(4-phenylbutyl) = c1ccc(CCCCN*)cc1; X1 = C[C@H](N[*:1])C(=O)C(=O)[*:2]

Legend:
Parkin = Parkin recruitment to mitochondria and mitochondrial morphology, fluorescence microscopy; assay type: cell-based, human; conditions: HEK293 T-REx PINK1 cells, 3 h; 5 μM compound 5, CCCP or Antimycin A, vs DMSO
Procedure: (§1) Inducible stable Flp-In HEK293 T-REx cells expressing PINK1 were described previously.[33] HEK293 T-REx PINK1 and HEK293T cells were grown in DMEM (Gibco) supplemented with 10% (v/v) fetal bovine serum (ThermoFisher), 1% (v/v) GlutaMAX (Gibco), 1% (v/v) sodium pyruvate (Gibco), 125 μg/mL hygromycin (Invitrogen), and 10 μg/mL blasticidin (Gibco) or DMEM supplemented with 10% (v/v) fetal bovine serum, respectively, at 37 °C in 5% (v/v) CO2. For microscopy, cells were seeded on poly-L-lysine (Sigma)-coated slides. Transient plasmid transfections were performed using 25 kDa linear polyethylenimine (Polysciences). Plasmid (100 ng) encoding HA-Parkin-IRES-GFP, mito-mCherry or Parkin-mEGFP, or 500 ng plasmid encoding PGAM5-FLAG were used per 6-well. Total transfected DNA was 2 μg/well. For siRNA transfection, 2 × 10^5 cells were seeded per 6-well and on the next day transfected with 20 nM siRNA-oligonucleotide using lipofectamine RNAiMAX (ThermoFisher). Cells were analyzed 27 h post-transfection or five days post-siRNA-transfection. HEK293 T-REx PINK1 cells were induced with 0.3 μg/mL doxycycline for 24 h before further processing. Hoechst staining (1 μg/mL) was done immediately before adding treatment to the cells. Treatments were administered for the indicated times before processing; CCCP (Sigma) was always used as 10 μM for 3 h and Antimycin A (Sigma) as 30 μM for 3 h.
For fixation, cells were incubated for 15 min with 4% formaldehyde (16% formaldehyde diluted in PBS, Thermo Scientific) and washed in PBS. The cover glasses were mounted with Fluoromount-G (Southern Biotech) on microscope slides. […] Parkin recruitment events to the mitochondria were counted by hand throughout each z-stack and cell. […] JC-1 images were handled as summed intensity z-stack projections, as well as subjected to flatfield correction and subtraction of background before measuring the fluorescence levels normalized to the number of cell nuclei. The fluorescence intensity ratio between the red and green signal was calculated and compared to DMSO as a ratio of 1. Data were evaluated using Excel and GraphPad Prism 6.

PINK1 = PINK1 processing and stabilization, endogenous PINK1, sodium carbonate fractionation and immunoblot; assay type: cell-based, human; conditions: HEK293T cells, 5 μM, 8 h
Procedure: as §1, with “[…] For quantification, ImageJ” for “Hoechst staining (1 μg/mL)”, “used (http://rsb.info.nih.gov/ij/). Immunoblots shown are representative of at least three independent experiments and” for “done immediately before adding treatment to the cells. Treatments”, “evaluated using Excel” for “administered for the indicated times before processing; CCCP (Sigma) was always used as 10 μM for 3 h”, “GraphPad Prism 9 (GraphPad Software, Inc.).” for “Antimycin A (Sigma) as 30 μM for 3 h.”

CC(=O)N[C@@H](C)C(=O)N[C@H](C(=O)N[C@@H](Cc1ccccc1)C(=O)N[C@@H](CC(C)C)C(=O)N[C@@H](C)C(=O)C(=O)NCCCCc1ccccc1)C(C)C [compound 5] (Ac-AVFL[X1]-{NH(4-phenylbutyl)})
Recruitment of Parkin-mEGFP to mitochondria (microscopy) (Parkin): significant recruitment of mEGFP-tagged Parkin to the mitochondria
Effect on endogenous PINK1 cleavage and stabilization (PINK1): endogenous PINK1 remains largely uncleaved and is stabilized in its 66 kDa form
Effect on endogenous PINK1 cleavage and stabilization (PINK1; listed as Compound 5): inhibits PARL-catalyzed PINK1 cleavage under endogenous expression levels
